Laboratory results: patent US8932597B2 (priority 2008, dated 2015)

test system: anti-M2 human monoclonal antibody Z3G1; format: binding

Substance	Signal (peptides that bind to Z3G1)	Signal (peptides that show specific binding to Z3G1)
1358 (CLLTEVECPIRNE; epitope peptide) [compound 1358]	2326	–
1570 (MLLTEVETPIRNEWGCRCNDSSD; epitope peptide) [compound 1570]	–	2126
1325 (MSLLCEVETPIRNC; epitope peptide) [compound 1325]	2823	–
1587 (SLLNEVETPIRNEWGCRCNDSSD; epitope peptide) [compound 1587]	–	2425
1558 (SCLCECGSLLCEV; epitope peptide) [compound 1558]	–	1747
1287 (MSLLLEVETPIRNEWGCRCN; epitope peptide) [compound 1287]	2804	–
1344 (MCLCTCVGMSLLCEV; epitope peptide) [compound 1344]	2431	–
1579 (SLLDEVETPIRNEWGCRCNDSSD; epitope peptide) [compound 1579]	–	2276
1576 (YLLTEVETPIRNEWGCRCNDSSD; epitope peptide) [compound 1576]	–	1882
1292 (MSLLREVETPIRNEWGCRCN; epitope peptide) [compound 1292]	2699	–
1282 (MSLLFEVETPIRNEWGCRCN; epitope peptide) [compound 1282]	2581	–
1304 (MSLLTEVITPIRNEWGCRCN; epitope peptide) [compound 1304]	2668	–
1359 (CLLTEVCTPIRNE; epitope peptide) [compound 1359]	1585	–
1345 (MSCLCECGMSLLCEV; epitope peptide) [compound 1345]	1307	–
1337 (MCLLTEVGMSLCTEV; epitope peptide) [compound 1337]	2513	–
1368 (SLLTEVETPCRNE; epitope peptide) [compound 1368]	1665	–
1369 (SLLTEVETPCRCE; epitope peptide) [compound 1369]	1546	–
1399 (SLLTEVETPIRNECG; epitope peptide) [compound 1399]	1545	–
1322 (MCLLTEVECPIRNE; epitope peptide) [compound 1322]	2421	–
1284 (MSLLHEVETPIRNEWGCRCN; epitope peptide) [compound 1284]	2691	–

Substance	Signal (peptides that bind to Z3G1)	Signal (peptides that show specific binding to Z3G1)
1460 (CEVETPIRNELLTEVETPICTEVETPIRN; epitope peptide; MISC_FEATURE (1)..(1): C is an attachment site for a CLIP; MISC_FEATURE (10)..(10): E is an attachment site for a CLIP; MISC_FEATURE (11)..(11): L is an attachment site for a CLIP; MISC_FEATURE (29)..(29): N is an attachment site for a CLIP) [compound 1460]	1620	–
1303 (MSLLTEVHTPIRNEWGCRCN; epitope peptide) [compound 1303]	2751	–
1440 (CTEVETPIRNSLLTEVETPCLTEVETPIR; epitope peptide; MISC_FEATURE (1)..(1): C is an attachment site for a CLIP; MISC_FEATURE (10)..(10): N is an attachment site for a CLIP; MISC_FEATURE (11)..(11): S is an attachment site for a CLIP; MISC_FEATURE (29)..(29): R is an attachment site for a CLIP) [compound 1440]	2705	–
1262 (MQLLTEVETPIRNEWGCRCN; epitope peptide) [compound 1262]	2526	–
1374 (SLLTEVETPIRNECGC; epitope peptide) [compound 1374]	1660	–
1497 (CVETPIRNEWLLTEVETPICVETPIRNEW; epitope peptide; MISC_FEATURE (1)..(1): C is an attachment site for a CLIP; MISC_FEATURE (10)..(10): W is an attachment site for a CLIP; MISC_FEATURE (11)..(11): L is an attachment site for a CLIP; MISC_FEATURE (29)..(29): W is an attachment site for a CLIP) [compound 1497]	1817	–
1261 (MPLLTEVETPIRNEWGCRCN; epitope peptide) [compound 1261]	2521	–
1255 (MHLLTEVETPIRNEWGCRCN; epitope peptide) [compound 1255]	2449	–
1328 (MSLLCEVETPCRNE; epitope peptide) [compound 1328]	2652	–
1302 (MSLLTEVGTPIRNEWGCRCN; epitope peptide) [compound 1302]	2789	–
1324 (MCLLCEVETPIRNE; epitope peptide) [compound 1324]	2038	–
1559 (SLLCEVGSLLTCV; epitope peptide) [compound 1559]	–	1972
1583 (SLLHEVETPIRNEWGCRCNDSSD; epitope peptide) [compound 1583]	–	2462
1392 (SLLCEVETPCRNEWG; epitope peptide) [compound 1392]	2465	–
1268 (MSMLTEVETPIRNEWGCRCN; epitope peptide) [compound 1268]	1329	–
1479 (CTEVETPIRNLLTEVETPICEVETPIRNE; epitope peptide; MISC_FEATURE (1)..(1): C is an attachment site for a CLIP; MISC_FEATURE (10)..(10): N is an attachment site for a CLIP; MISC_FEATURE (11)..(11): L is an attachment site for a CLIP; MISC_FEATURE (29)..(29): E is an attachment site for a CLIP) [compound 1479]	1627	–
1554 (SLLCEVGSLLCEV; epitope peptide) [compound 1554]	–	2399
1551 (SLLCEVGSCLTEV; epitope peptide) [compound 1551]	–	2499
1562 (SLLCEVGSCLCEC; epitope peptide) [compound 1562]	–	2614
1289 (MSLLNEVETPIRNEWGCRCN; epitope peptide) [compound 1289]	2824	–

Substance	Signal (peptides that bind to Z3G1)	Signal (peptides that show specific binding to Z3G1)
1382 (CLLTEVETCIRNEWG; epitope peptide) [compound 1382]	2296	–
439 (SLLTEVETPIRNE; epitope peptide) [compound 439]	1819	–
1571 (NLLTEVETPIRNEWGCRCNDSSD; epitope peptide) [compound 1571]	–	2135
1333 (MSLLCEVETPIRNE; epitope peptide) [compound 1333]	2454	–
1575 (WLLTEVETPIRNEWGCRCNDSSD; epitope peptide) [compound 1575]	–	2180
1560 (SLLCEVGCSCLCEV; epitope peptide) [compound 1560]	–	2112
1301 (MSLLTEVFTPIRNEWGCRCN; epitope peptide) [compound 1301]	1858	–
1461 (CVETPIRNEWLLTEVETPICTEVETPIRN; epitope peptide; MISC_FEATURE (1)..(1): C is an attachment site for a CLIP; MISC_FEATURE (10)..(10): W is an attachment site for a CLIP; MISC_FEATURE (11)..(11): L is an attachment site for a CLIP; MISC_FEATURE (29)..(29): N is an attachment site for a CLIP) [compound 1461]	1835	–
1375 (SLLTEVETPIRNEWCC; epitope peptide) [compound 1375]	1813	–
1291 (MSLLQEVETPIRNEWGCRCN; epitope peptide) [compound 1291]	2792	–
1251 (MDLLTEVETPIRNEWGCRCN; epitope peptide) [compound 1251]	2726	–
1331 (MSLLCEVCTPIRNE; epitope peptide) [compound 1331]	2601	–
1475 (CETPIRNEWGSLLTEVETPCEVETPIRNE; epitope peptide; MISC_FEATURE (1)..(1): C is an attachment site for a CLIP; MISC_FEATURE (10)..(10): G is an attachment site for a CLIP; MISC_FEATURE (11)..(11): S is an attachment site for a CLIP; MISC_FEATURE (29)..(29): E is an attachment site for a CLIP) [compound 1475]	2642	–
1327 (MSLLCEVETPICNE; epitope peptide) [compound 1327]	2704	–
1283 (MSLLGEVETPIRNEWGCRCN; epitope peptide) [compound 1283]	2717	–
1286 (MSLLKEVETPIRNEWGCRCN; epitope peptide) [compound 1286]	2825	–
1566 (GLLTEVETPIRNEWGCRCNDSSD; epitope peptide) [compound 1566]	–	2321
1356 (CLLTEVETPCRNE; epitope peptide) [compound 1356]	1991	–
1512 (CTEVETPIRNLLTEVETPICETPIRNEWG; epitope peptide; MISC_FEATURE (1)..(1): C is an attachment site for a CLIP; MISC_FEATURE (10)..(10): N is an attachment site for a CLIP; MISC_FEATURE (11)..(11): L is an attachment site for a CLIP; MISC_FEATURE (29)..(29): G is an attachment site for a CLIP) [compound 1512]	–	2645
